# Values joined by “and” are separate entries in the source; they are usually repeats but may differ in a detail not shown here. Equal entries are not always repeated. Inconclusive results are not listed.
# System: nude mice, A549 intrarenal xenograft, tumor weight change
# Assay: NCI In Vivo Anticancer Drug Screen. Data for tumor model A549 Human Adenocarcinoma of Lung with characteristics of Type II Alveolar Epithelial cells (intrarenal inoculation) in NU/NU BALB/C (nude) mice
# Details: endpoint: mean tumor weight change, schedule: Q04DX003 (ip), higher = larger tumour
# Method in brief: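 Activity is expressed as T/C: the treated-group value over the vehicle-treated control value. The measure was survival or tumor size in mice carrying transplantable tumors.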
# [1] = dose: 100.0 mg/kg/injection, vehicle: Klucel (hydroxypropylcellulose) (HPC)
# [2] = dose: 25.0 mg/kg/injection, vehicle: saline with Tween-80
# [3] = dose: 50.0 mg/kg/injection, vehicle: saline with Tween-80
# [4] = dose: 100.0 mg/kg/injection, vehicle: saline with Tween-80
# [5] = dose: 150.0 mg/kg/injection, vehicle: Klucel (hydroxypropylcellulose) (HPC)
# [6] = dose: 300.0 mg/kg/injection, vehicle: Klucel (hydroxypropylcellulose) (HPC)
# [7] = dose: 75.0 mg/kg/injection, vehicle: saline with Tween-80
smiles,measurement,setting,value
O=c1[nH]cnc2c1cnn2CN1CCOCC1,T/C,"dose: 50.0 mg/kg/injection, vehicle: Klucel (hydroxypropylcellulose) (HPC)",166 % of control
same,T/C,[1],72 % of control
CC1/C=C/C=C/CC/C=C/C=C/C=C/C=C/C(OC2OC(C)C(O)C(N)C2O)CC2OC(CC(O)C(O)CCC(O)CC(O)CC(O)CC(=O)OC(C)C(C)C1O)CC(O)C2C(=O)O (stereo not given),T/C,[2],97 % of control
same,T/C,[3],69 % of control
same,T/C,[4],62 % of control
CC(CNC(=O)C12CC3CC(CC(C3)C1)C2)NC(=O)C12CC3CC(CC(C3)C1)C2 (stereo not given),T/C,"dose: 300.0 mg/kg/injection, vehicle: DMSO",106 % of control
CC1OC2CC(O)C1(O)C1=C2C(O)=C(C(N)=O)C(=N)C1=O (stereo not given),T/C,"dose: 0.63 mg/kg/injection, vehicle: saline + alcohol",66 % of control
same,T/C,"dose: 1.25 mg/kg/injection, vehicle: saline + alcohol",48 % of control
same,T/C,"dose: 2.5 mg/kg/injection, vehicle: saline + alcohol",35 % of control
same,T/C,"dose: 5.0 mg/kg/injection, vehicle: saline + alcohol",94 % of control
S=C(N/N=C1/CCCC/C1=N/NC(=S)N1CCOCC1)N1CCOCC1,T/C,"dose: 6.25 mg/kg/injection, vehicle: saline with Tween-80",71 % of control
same,T/C,"dose: 12.5 mg/kg/injection, vehicle: saline with Tween-80",27 % of control
same,T/C,[2],37 % of control
same,T/C,[3],82 % of control
Cc1ccccc1N=C(c1ccccc1)C1C(=O)c2ccccc2C1=O,T/C,"dose: 150.0 mg/kg/injection, vehicle: other",101 % of control
same,T/C,"dose: 300.0 mg/kg/injection, vehicle: other",75 % of control
same,T/C,"dose: 600.0 mg/kg/injection, vehicle: other",104 % of control
same,T/C,"dose: 1200.0 mg/kg/injection, vehicle: other",121 % of control
O=C(NC(Cc1ccc(I)cc1)C(=O)O)c1cccc(Br)c1 (stereo not given),T/C,[1],99 % of control
same,T/C,[5],35 % of control
same,T/C,"dose: 200.0 mg/kg/injection, vehicle: Klucel (hydroxypropylcellulose) (HPC)",45 % of control
same,T/C,[6],35 % of control
CCC(=O)[O][Bi]([c]1ccccc1)[c]1ccccc1,T/C,"dose: 6.25 mg/kg/injection, vehicle: Klucel (hydroxypropylcellulose) (HPC)",79 % of control
same,T/C,"dose: 12.5 mg/kg/injection, vehicle: Klucel (hydroxypropylcellulose) (HPC)",49 % of control
same,T/C,"dose: 25.0 mg/kg/injection, vehicle: Klucel (hydroxypropylcellulose) (HPC)",43 % of control
C=C(c1ccc(OC)c(OC)c1)c1nccc2cc(OC)c(OC)cc12,T/C,[5],50 % of control
same,T/C,[6],62 % of control
COc1ccc2oc3c(ccc[n+]3C)c(=O)c2c1,T/C,[4],57 % of control
same,T/C,"dose: 200.0 mg/kg/injection, vehicle: saline with Tween-80",38 % of control
same,T/C,"dose: 400.0 mg/kg/injection, vehicle: saline with Tween-80",32 % of control
[NH-]C(CCC(N)=O)C(=O)O.[NH-]C(CCC(N)=O)C(=O)O.[Zn+2] (stereo not given),T/C,[2],83 % of control
same,T/C,[3],29 % of control
same,T/C,[4],54 % of control
C/C(=N\NC(=O)c1ccccc1O)c1cccc(/C(C)=N/NC(=O)c2ccccc2O)n1,T/C,"dose: 25.0 mg/kg/injection, vehicle: saline",97 % of control
same,T/C,"dose: 50.0 mg/kg/injection, vehicle: saline",71 % of control
same,T/C,"dose: 100.0 mg/kg/injection, vehicle: saline",65 % of control
same,T/C,"dose: 200.0 mg/kg/injection, vehicle: saline",77 % of control
CC1=CCCC2C1(C)CCC(C)C2(C)Cc1cc(O)ccc1O (stereo not given),T/C,[1],16 % of control
Cc1cc(O)c2c(c1O)C(=O)C13C(=C2O)C(=O)C2C(O)C1C1C(O)C3C(=O)C3=C(O)c4c(O)cc(C)c(O)c4C(=O)C321 (stereo not given),T/C,"dose: 1.0 mg/kg/injection, vehicle: saline with Tween-80",172 % of control
same,T/C,"dose: 2.0 mg/kg/injection, vehicle: saline with Tween-80",112 % of control
CCOc1ccc(C(C)c2cc3c(cc2OC)OCO3)cc1 (stereo not given),T/C,"dose: 100.0 mg/kg/injection, vehicle: distilled water + Tween-80",61 % of control
same,T/C,"dose: 200.0 mg/kg/injection, vehicle: distilled water + Tween-80",59 % of control
same,T/C,"dose: 400.0 mg/kg/injection, vehicle: distilled water + Tween-80",63 % of control
O=[N+]([O-])c1ccc([I+]c2ccccc2)cc1,T/C,"dose: 18.75 mg/kg/injection, vehicle: Klucel (hydroxypropylcellulose) (HPC)",35 % of control
same,T/C,"dose: 37.5 mg/kg/injection, vehicle: Klucel (hydroxypropylcellulose) (HPC)",101 % of control
same,T/C,"dose: 75.0 mg/kg/injection, vehicle: Klucel (hydroxypropylcellulose) (HPC)",51 % of control
CC(=O)NCCSSCCCCS(=O)O,T/C,"dose: 75.0 mg/kg/injection, vehicle: saline",111 % of control
same,T/C,"dose: 150.0 mg/kg/injection, vehicle: saline",60 % of control
same,T/C,"dose: 300.0 mg/kg/injection, vehicle: saline",39 % of control
same,T/C,"dose: 600.0 mg/kg/injection, vehicle: saline",70 % of control
CCOC(=O)c1ccc(NN=NCCF)cc1,T/C,"dose: 75.0 mg/kg/injection, vehicle: distilled water + Tween-80 + alcohol",114 % of control
same,T/C,"dose: 150.0 mg/kg/injection, vehicle: distilled water + Tween-80 + alcohol",160 % of control
same,T/C,"dose: 300.0 mg/kg/injection, vehicle: distilled water + Tween-80 + alcohol",63 % of control
CN(C)N=Nc1ccc(C(N)=O)cc1,T/C,"dose: 22.5 mg/kg/injection, vehicle: saline with Tween-80",65 % of control
same,T/C,"dose: 45.0 mg/kg/injection, vehicle: saline with Tween-80",55 % of control
same,T/C,"dose: 90.0 mg/kg/injection, vehicle: saline with Tween-80",54 % of control
same,T/C,"dose: 180.0 mg/kg/injection, vehicle: saline with Tween-80",17 % of control
same,T/C,"dose: 216.0 mg/kg/injection, vehicle: saline with Tween-80",39 % of control
same,T/C,"dose: 360.0 mg/kg/injection, vehicle: saline with Tween-80",2 % of control and 15 % of control
CN1COc2c(n(C)c(=O)[nH]c2=O)C1,T/C,"dose: 150.0 mg/kg/injection, vehicle: suspension in saline",97 % of control
same,T/C,"dose: 300.0 mg/kg/injection, vehicle: suspension in saline",46 % of control
same,T/C,"dose: 600.0 mg/kg/injection, vehicle: suspension in saline",88 % of control
same,T/C,"dose: 1200.0 mg/kg/injection, vehicle: suspension in saline",67 % of control
O=C1CN(CCN2CC(=O)N(CN3CCOCC3)C(=O)C2)CC(=O)N1CN1CCOCC1,T/C,"dose: 37.5 mg/kg/injection, vehicle: saline with Tween-80",51 % of control
same,T/C,[7],60 % of control
c1ccc(OCC2CO2)c(OCC2CO2)c1 (stereo not given),T/C,[7],89 % of control
same,T/C,"dose: 150.0 mg/kg/injection, vehicle: saline with Tween-80",-20 % of control
same,T/C,"dose: 300.0 mg/kg/injection, vehicle: saline with Tween-80",9 % of control
COC(=O)C1(F)C(=O)NC(=O)NC1OC (stereo not given),T/C,"dose: 400.0 mg/kg/injection, vehicle: Klucel (hydroxypropylcellulose) (HPC)",115 % of control
same,T/C,"dose: 800.0 mg/kg/injection, vehicle: Klucel (hydroxypropylcellulose) (HPC)",116 % of control
same,T/C,"dose: 1600.0 mg/kg/injection, vehicle: Klucel (hydroxypropylcellulose) (HPC)",94 % of control
CC(/C=C/C=C/C=C/C=C/C=C/C(O)=C1/C(=O)C(CCC(=O)O)N(C)C1=O)=C\C(C)C(OC1CC(O)C(O)C(C)O1)C(C)C (stereo not given),T/C,"dose: 15.88 mg/kg/injection, vehicle: water",60 % of control
same,T/C,"dose: 31.75 mg/kg/injection, vehicle: water",61 % of control
same,T/C,"dose: 62.5 mg/kg/injection, vehicle: water",110 % of control
same,T/C,"dose: 75.0 mg/kg/injection, vehicle: water",37 % of control
